Source: US20110183926A1, “TREATMENT USING CONTINUOUS LOW DOSE APPLICATION OF SUGAR ANALOGS” (UNIVERSITY OF MIAMI, priority 2008, published 2011)

System: MDA-MB-435 cells
Assay: orthotopic human breast cancer mouse model, continuous 2-DG by intraperitoneal osmotic pump
Assay type: in vivo
Settings: 19 μg/ml/hr or 30 mg/kg per 24 hrs continuously for 4 weeks; intraperitoneal osmotic pump filled with 328 mg/ml; MDA-MB-435 orthotopic in CD-1 nude mice
Procedure: 2×10^6 MDA-MB-435 cells were injected orthotopically to CD-1 nude mice. After two weeks, osmotic pumps (Model 1004, Alzet Inc.) were inserted into the peritoneal cavity under general anesthesia. In one group of animals (n=9), the pumps contained 0.9% NaCl, while in the other group (n=5), the pumps were filled with 2-DG at a concentration of 328 mg/ml. Mice were weighed, and tumor measurements were taken by caliper three times weekly. Tumor measurements were converted to tumor volume by using the formula W×L^2/2. Mice were killed when either W or L exceeded 15 mm. At sacrifice, mice were weighed, and tumors were excised and checked histologically for verification of tumor growth.

## O=CC[C@@H](O)[C@H](O)[C@H](O)CO [2-DG, 2-deoxy-D-glucose]
  tumor burden (tumor volume by caliper, W×L^2/2): effectively reduces tumor burden
